assay: Unbound brain to plasma concentration ratio, Kp of the compound in rat at 1 mg/kg, iv for 4 hrs by LC-MS/MS analysis; assay type: ADME, organism-based; settings: brain and plasma, read-out: K(p,uu,brain)

Structure (SMILES) | Kp uu at 4 h
C[C@@H]1CCOc2cc(F)ccc2C(=O)Nc2cccc(n2)-c2nncn2C1 | 0.17
C[C@H]1CCCOc2cc(F)ccc2C(=O)Nc2cccc(n2)-c2nncn21 | 0.09
Cc1cn(-c2ccc3c(c2)C(=O)Nc2cccc(n2)-c2nncn2CCCCO3)cn1 | < 0.1

Next, values leading:

Kp uu at 4 h | Structure (SMILES)
1 | CN(C)CCn1cc(-c2ccc3c(c2)C(=O)Nc2cccc(n2)-c2nncn2CCCCO3)cn1
< 0.1 | C[C@@H]1CCOc2cc(F)c(-c3cnn(CCN(C)C)c3)cc2C(=O)Nc2cccc(n2)-c2nncn2C1
